Results published in patent publication US6951882B2, “Substituted 4-phenyl-[1,3]-dioxanes” (Janssen Pharmaceutica N.V., priority 2002, dated 2005).

Target: T1, orexin-2 receptor (Homo sapiens, UniProt O43614)
T1 construct: expressed in transfected cells; host or cells: CHO-K1 (preferred) or HEK-293 recombinant clones
T1 sequence (O43614 1-444): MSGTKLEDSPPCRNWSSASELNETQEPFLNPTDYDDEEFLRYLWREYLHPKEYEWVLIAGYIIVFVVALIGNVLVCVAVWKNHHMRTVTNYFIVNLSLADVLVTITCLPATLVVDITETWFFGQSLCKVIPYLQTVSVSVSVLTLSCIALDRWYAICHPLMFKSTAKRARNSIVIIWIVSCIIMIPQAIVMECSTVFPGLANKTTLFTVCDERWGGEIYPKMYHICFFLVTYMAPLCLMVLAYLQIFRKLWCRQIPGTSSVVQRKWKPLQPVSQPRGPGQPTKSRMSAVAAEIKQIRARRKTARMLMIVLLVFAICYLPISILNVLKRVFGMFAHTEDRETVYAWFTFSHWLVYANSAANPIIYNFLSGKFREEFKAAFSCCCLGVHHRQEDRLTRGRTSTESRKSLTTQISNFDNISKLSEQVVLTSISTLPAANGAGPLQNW
Test: Orexin radioligand binding assay (125I-orexin A, adherent recombinant cells)
Details: 125I-orexin A displacement, recombinant CHO-K1 or HEK-293 cells expressing the orexin receptor
Method: The reaction was quenched with 100 μL of 10% w/v bovine serum albumin, then the products were pre-purified using Waters Maxi-Clean C18 cartridges (Alltech, San Jose, Calif.). The mobile phase for the reverse phase separations (pre-purification and gradient HPLC) was 0.1% TFA, and the eluent was 0.1% TFA in acetonitrile. After removing the acetonitrile from the Maxi-Clean cartridge eluent by lyophilization, the labeled compound was further purified by gradient HPLC using a Vydac (Hesperia, Calif.) analytical C18 HPLC column. A gradient of 2% acetonitrile/min was used and fractions were collected every 0.75 min at a flow rate of 1.5 mL/min.
Radioligand binding assays were performed in opaque, white 96-well tissue culture plates pretreated with poly-D-lysine (Bio-Coat plates, Becton Dickinson, Franklin Lakes, N.J.). Cells expressing the orexin receptor were seeded at 30,000 cells/well in 100 μL/well Ham's F12 with 10% heat inactivated fetal bovine serum, penicillin/streptomycin and 800 mg/L G418. […] In preparation for the binding assay, the cell culture medium was aspirated away, and the cells were gently washed with 100 μL-well binding buffer (Dulbecco's phosphate buffered saline containing 0.1% w/v bovine serum albumin). […] The assay was terminated by aspirating the liquid from the wells, washing the wells with iced binding buffer, aspirating the wells dry, adding 50 μL/well scintillation cocktail (MicroScint 40, Packard Biosciences, Meriden Conn.), and counting the plate(s) in a Packard TopCount scintillation counter. […] Data were analyzed using GraphPad Prizm software to calculate Ki values.

## Cc1cc(Br)ccc1NC(=O)N[C@H]1COC(C)(C)O[C@H]1c1ccccc1 [Example 2, 1-(4-Bromo-2-methyl-phenyl)-3-((4S,5S)-2,2-dimethyl-4-phenyl-[1,3]dioxan-5-yl)-urea]
  Ki: 0.05 µM

## Cc1ccc(Cl)c(NC(=O)N[C@H]2COC(C)(C)O[C@H]2c2ccccc2)c1 [Example 3, 1-(2-Chloro-5-methyl-phenyl)-3-((4S,5S)-2,2-dimethyl-4-phenyl-[1,3]dioxan-5-yl)-urea]
  Ki: 0.027 µM

## CC1(C)OC[C@H](NC(=O)Nc2ccccc2I)[C@H](c2ccccc2)O1 [Example 6, 1-((4S,5S)-2,2-Dimethyl-4-phenyl-[1,3]dioxan-5-yl)-3-(2-iodo-phenyl)-urea]
  Ki: 0.07 µM

## CC1(C)OC[C@H](NC(=O)Nc2ccc(I)cc2)[C@H](c2ccccc2)O1 [Example 7, 1-((4S,5S)-2,2-Dimethyl-4-phenyl-[1,3]dioxan-5-yl)-3-(4-iodo-phenyl)-urea]
  Ki: 0.045 µM

## CC1(C)OC[C@H](NC(=O)Nc2ccccc2C(F)(F)F)[C@H](c2ccccc2)O1 [Example 8, 1-((4S,5S)-2,2-Dimethyl-4-phenyl-[1,3]dioxan-5-yl)-3-(2-trifluoromethyl-phenyl)-urea]
  Ki: 0.076 µM

## Cc1cc(NC(=O)N[C@H]2COC(C)(C)O[C@H]2c2ccccc2)ccc1Br [Example 9, 1-(4-Bromo-3-methyl-phenyl)-3-((4S,5S)-2,2-dimethyl-4-phenyl-[1,3]dioxan-5-yl)-urea]
  Ki: 0.087 µM

## CC1(C)OC[C@H](NC(=O)Nc2cc(Cl)ccc2Cl)[C@H](c2ccccc2)O1 [Example 10, 1-(2,5-Dichloro-phenyl)-3-((4S,5S)-2,2-dimethyl-4-phenyl-[1,3]dioxan-5-yl)-urea]
  Ki: 0.098 µM

## Cc1ccc(C)c(NC(=O)N[C@H]2COC(C)(C)O[C@H]2c2ccccc2)c1 [Example 11, 1-(2,5-Dimethyl-phenyl)-3-((4S,5S)-2,2-dimethyl-4-phenyl-[1,3]dioxan-5-yl)-urea]
  Ki: 0.064 µM

## CC1(C)OC[C@H](NC(=O)Nc2ccccc2-c2cccs2)[C@H](c2ccccc2)O1 [Example 13, 1-((4S,5S)-2,2-Dimethyl-4-phenyl-[1,3]dioxan-5-yl)-3-(2-thiophen-2-yl-phenyl)-urea]
  Ki: 0.034 µM

## CC1(C)OC[C@H](NC(=O)Nc2ccccc2-c2cccc(Cl)c2)[C@H](c2ccccc2)O1 [Example 14, 1-(3′-Chloro-biphenyl-2-yl)-3-((4S,5S)-2,2-dimethyl-4-phenyl-[1,3]dioxan-5-yl)-urea]
  Ki: 0.063 µM

## CC1(C)OC[C@H](NC(=O)Nc2ccccc2-c2ccsc2)[C@H](c2ccccc2)O1 [Example 15, 1-((4S,5S)-2,2-Dimethyl-4-phenyl-[1,3]dioxan-5-yl)-3-(2-thiophen-3-yl-phenyl)-urea]
  Ki: 0.1 µM

## CC1(C)OC[C@H](NC(=O)Nc2ccccc2-c2ccccc2)[C@H](c2ccccc2)O1 [Example 16, 1-Biphenyl-2-yl-3-((4S,5S)-2,2-dimethyl-4-phenyl-[1,3]dioxan-5-yl)-urea]
  Ki: 0.056 µM

## CC1(C)OC[C@H](NC(=O)Nc2cc(C(F)(F)F)ccc2Cl)[C@H](c2ccccc2)O1 [Example 17, 1-(2-Chloro-5-trifluoromethyl-phenyl)-3-((4S,5S)-2,2-dimethyl-4-phenyl-[1,3]dioxan-5-yl)-urea]
  Ki: 0.12 µM

## CC1(C)OC[C@H](NC(=O)Nc2ccccc2C#N)[C@H](c2ccccc2)O1 [Example 20, 1-(2-Cyano-phenyl)-3-((4S,5S)-2,2-dimethyl-4-phenyl-[1,3]dioxan-5-yl)-urea]
  Ki: 0.06 µM

## CC1(C)OC[C@H](NC(=O)Nc2ccccc2Oc2ccccc2)[C@H](c2ccccc2)O1 [Example 21, 1-((4S,5S)-2,2-Dimethyl-4-phenyl-[1,3]dioxan-5-yl)-3-(2-phenoxy-phenyl)-urea]
  Ki: 0.21 µM

## CC1(C)OC[C@H](/N=C(\S)Nc2ccc(Cl)cc2Cl)[C@H](c2ccccc2)O1 [Example 22, 1-(2,4-Dichloro-phenyl)-3-((4S,5S)-2,2-dimethyl-4-phenyl-[1,3]dioxan-5-yl)-thiourea]
  Ki: 0.28 µM

## CC1(C)OC[C@H](NC(=O)Nc2ccccc2-c2cccnc2)[C@H](c2ccccc2)O1 [Example 23, 1-((4S,5S)-2,2-Dimethyl-4-phenyl-[1,3]dioxan-5-yl)-3-(2-pyridin-3-yl-phenyl)-urea]
  Ki: 0.32 µM

## CC1(C)OC[C@H](/N=C(\S)Nc2ccccc2Br)[C@H](c2ccccc2)O1 [Example 24, 1-(2-Bromo-phenyl)-3-((4S,5S)-2,2-dimethyl-4-phenyl-[1,3]dioxan-5-yl)-thiourea]
  Ki: 0.54 µM

## O=C(Nc1ccc(Br)cc1Br)N[C@H]1COC2(CCCCC2)O[C@H]1c1ccccc1 [Example 25, 1-(2,4-Dibromo-phenyl)-3-((2S,3S)-2-phenyl-1,5-dioxa-spiro[5.5]undec-3-yl)-urea]
  Ki: 0.7 µM

## O=C(Nc1ccccc1Br)N[C@H]1COC2(CCCCC2)O[C@H]1c1ccccc1 [Example 26, 1-(2-Bromo-phenyl)-3-((2S,3S)-2-phenyl-1,5-dioxa-spiro[5.5]undec-3-yl)-urea]
  Ki: 0.98 µM

## Cc1ccc(/N=C(\NC#N)N[C@H]2COC(C)(C)O[C@H]2c2ccccc2)c(Br)c1 [Example 27, N-(2-Bromo-4-methyl-phenyl)-N′-((4S,5S)-2,2-dimethyl-4-phenyl-[1,3]dioxan-5-yl)-N″-cyanoguanidine]
  Ki: 1 µM

## CC1(c2ccccc2)OC[C@H](NC(=O)Nc2ccccc2Br)[C@H](c2ccccc2)O1 (stereo partly drawn) [Example 28, 1-(2-Bromo-phenyl)-3-((4S,5S)-2-methyl-2,4-diphenyl-[1,3]dioxan-5-yl)-urea]
  Ki: 2.6 µM

## Cc1ccc(NC(=O)N[C@H]2COC(C)(C)O[C@H]2c2ccccc2)c(C)c1 [Example 29, 1-(2,4-Dimethyl-phenyl)-3-((4S,5S)-2,2-dimethyl-4-phenyl-[1,3]dioxan-5-yl)-urea]
  Ki: 0.2 µM

## CC1(C)OC[C@H](NC(=O)Nc2ccccc2Cl)[C@H](c2ccccc2)O1 [Example 30, 1-(2-Chloro-phenyl)-3-((4S,5S)-2,2-dimethyl-4-phenyl-[1,3]dioxan-5-yl)-urea]
  Ki: 0.3 µM

## CC1(C)OC[C@H](NC(=O)Nc2ccccc2F)[C@H](c2ccccc2)O1 [Example 31, 1-((4S,5S)-2,2-Dimethyl-4-phenyl-[1,3]dioxan-5-yl)-3-(2-fluoro-phenyl)-urea]
  Ki: 1.55 µM

## Cc1ccccc1NC(=O)N[C@H]1COC(C)(C)O[C@H]1c1ccccc1 [Example 32, 1-((4S,5S)-2,2-Dimethyl-4-phenyl-[1,3]dioxan-5-yl)-3-o-tolyl-urea]
  Ki: 0.65 µM

## CC1(C)OC[C@H](NC(=O)Nc2ccccc2[N+](=O)[O-])[C@H](c2ccccc2)O1 [Example 33, 1-((4S,5S)-2,2-Dimethyl-4-phenyl-[1,3]dioxan-5-yl)-3-(2-nitro-phenyl)-urea]
  Ki: 0.58 µM

## CC1(C)OC[C@H](NC(=O)Cc2ccccc2Br)[C@H](c2ccccc2)O1 [Example 34, 2-(2-Bromo-phenyl)-N-((4S,5S)-2,2-dimethyl-4-phenyl-[1,3]dioxan-5-yl)-acetamide]
  Ki: 2.2 µM

## CC1(C)OC[C@H](NC(=O)Oc2ccccc2Cl)[C@H](c2ccccc2)O1 [Example 35, ((4S,5S)-2,2-Dimethyl-4-phenyl-[1,3]dioxan-5-yl)-carbamic acid 2-chloro-phenyl ester]
  Ki: 2.6 µM

## CC1(C)OC[C@H](NC(=O)Nc2ccc(Br)cc2)[C@H](c2ccccc2)O1 [Example 36, 1-(4-Bromo-phenyl)-3-((4S,5S)-2,2-dimethyl-4-phenyl-[1,3]dioxan-5-yl)-urea]
  Ki: 1.4 µM

## COc1ccccc1NC(=O)N[C@H]1COC(C)(C)O[C@H]1c1ccccc1 [Example 37, 1-((4S,5S)-2,2-Dimethyl-4-phenyl-[1,3]dioxan-5-yl)-3-(2-methoxy-phenyl)-urea]
  Ki: 6 µM

## CC1(C)OC[C@H](NC(=O)Nc2ccc(-c3cccnc3)cc2)[C@H](c2ccccc2)O1 [Example 38, 1-((4S,5S)-2,2-Dimethyl-4-phenyl-[1,3]dioxan-5-yl)-3-(4-pyridin-3-yl-phenyl)-urea]
  Ki: 0.32 µM

## CC1(C)OC[C@H](NC(=O)Nc2ccc(Cl)cc2)[C@H](c2ccccc2)O1 [Example 39, 1-(4-Chloro-phenyl)-3-((4S,5S)-2,2-dimethyl-4-phenyl-[1,3]dioxan-5-yl)-urea]
  Ki: 0.3 µM

## COC(=O)c1ccccc1NC(=O)N[C@H]1COC(C)(C)O[C@H]1c1ccccc1 [Example 40, 2-[3-((4S,5S)-2,2-Dimethyl-4-phenyl-[1,3]dioxan-5-yl)-ureido]-benzoic acid methyl ester]
  Ki: 1.2 µM

## CC1(C)OC[C@H](NC(=O)Nc2ccccc2C(=O)O)[C@H](c2ccccc2)O1 [Example 41, 2-[3-((4S,5S)-2,2-Dimethyl-4-phenyl-[1,3]dioxan-5-yl)-ureido]-benzoic acid]
  Ki: 0.71 µM
